Legend:
Type in all cases: cell-based, human
[1] = tested on: T2 cells loaded with the corresponding synthetic peptide and HLA-A2+ lung cancer cells lines [CRL-5865, CRL-5944 and NCI-H522]; experiment: Interferon-γ ELISpot with peptide-specific CTL from healthy HLA-A2+ donors; details: CTL from PBMC of two healthy HLA-A2+ donors; FIG. 1
Procedure: (§1) PBMC were purified from HLA-A2^+ normal donor blood using lymphocyte separation media (Cappel ICN Biomedical, Aurora, Ohio). PBMC (5.3×10^6) were added to individual wells of a 24-well cluster plate (Costar, Corning, N.Y.) in 1.0 ml of serum-free AIM-V medium (Life Technologies) and allowed to adhere for 60 min at 37° C. Non-adherent cells were removed and saved as a source of effector T cells. Adherent PBMC (˜8.3×10^5/well) were then pulsed with […] synthetic peptides in serum-free AIM-V medium containing […] β2-microglobulin (Calbiochem-Novabiochem, San Diego, Calif.) and incubated for 2 h at 37° C. Unbound peptides were aspirated and the wells washed with media.
(§2) Monocyte-derived DC were generated as follows. PBMC (5.3×10^7) were allowed to adhere in T-75 flasks (Corning) in 10 ml of serum-free AIM-V medium for 60 min at 37° C. Non-adherent cells were collected as a source of effector T cells and pooled with the previous collection above. Adherent monocytes in flasks were then exposed to recombinant human granulocyte macrophage colony stimulating factor (GM-CSF, 25 ng/ml; Peprotech) and recombinant human IL-4 (100 ng/ml; Peprotech) in 10 ml of AIM-V medium containing 10% heat-inactivated FBS. DC obtained by this method [immature DC (iDC)] are characterized by expression of low levels of CD83, CD80, CD86, and HLA class I and class II molecules (data not shown).
(§3) Mature DC (mDC) were obtained by exposing day 5 DC cultures to recombinant soluble CD40 ligand (sCD40L; Peprotech) at […] for 24 h in the presence of 25 ng/ml GM-CSF and are characterized by expression of high levels of CD80, CD86, and HLA class I and class II molecules.mDC were harvested, washed, pulsed with 5 mg/ml peptide in serum-free AIM-V medium and irradiated (5000 rad) prior to use as stimulators.
(§4) The protocol used here is a modification of the method described by Plebanski et al. (Eur. J. Immunol. 25:1783, (1995)). CTL to peptide were generated by 3±4 cycles of stimulation with peptide-loaded APC. For the first round of stimulation (day 0), T cells or non-adherent PBMC from above (2.3×10^6/ml or 4.3×10^6 per well) were added in bulk (CD4^+, CD8^+, NK, etc.) to adherent PBMC-loaded peptides in serum-free medium ([…]), β2-microglobulin ([…]) (Calbiochem-Novabiochem), recombinant human IL-7 (5 ng/ml) (Peprotech) and keyhole limpet hemocyanin (5 mg/ml) (Sigma, St Louis, Mo.). Cultures were re-stimulated with iDC every 7 days, pulsed with varying amounts of peptide (second round 25 mg/ml, third round 10 mg/ml) and irradiated (5000 rad) on day 8. At each re-stimulation, the T cells were transferred to new plates by first aspirating 70% of spent media in wells and then transferring the pooled contents to a new plate. Fresh IL-7 was added at each re-stimulation. The responder:stimulator (T cell:DC) ratio was set at 20 for each stimulation. Recombinant human IL-2 (10 U/ml) was added on day 5 after each re-stimulation.
(§5) Prior to CTL assays, the T cells were harvested and CD8^+ T cells were purified by positive selection using CD8^+ microbeads immunomagnetic cell separation with MACS kit (Miltenyi Biotec, Auburn, Calif.). If a fourth round of stimulation was necessary following CTL analysis, the CTL were pulsed as before, except with 5±10 mg/ml of peptide.
(§6) The peptide specific CTLs were assessed for recognition and/or lysis of peptide-loaded T2 cells as well as various lung normal and tumor target cells. After two to four rounds of restimulation, cultures were tested for cytotoxic activity against the peptide loaded and normal and tumor targets. Peptide-pulsed T2 cells (1 μg/ml peptide for 2 hr at 37° C.), irrelevant HLA-A2 peptides pulsed T2 cells were used as controls. […]

[2] = tested on: T2 cells loaded with the corresponding synthetic peptide and HLA-A2+ lung cancer cells lines [CRL-5865, CRL-5944 and NCI-H522]; experiment: Granzyme B ELISpot with peptide-specific CTL from a HLA-A2+ lung cancer patient; details: CTL from PBMC of a HLA-A2+ lung cancer patient; FIG. 3B
Procedure: (§7) The protocol used here is a modification of the method described by Plebanski et al. (Eur. J. Immunol. 25:1783, (1995)). CTL to peptide were generated by 3±4 cycles of stimulation with peptide-loaded APC. For the first round of stimulation (day 0), T cells or non-adherent PBMC from above (2.3×10^6/ml or 4.3×10^6 per well) were added in bulk (CD4^+, CD8^+, NK, etc.) to adherent PBMC-loaded peptides in serum-free medium ([…]), β2-microglobulin ([…]) (Calbiochem-Novabiochem), recombinant human IL-7 (5 ng/ml) (Peprotech) and keyhole limpet hemocyanin (5 mg/ml) (Sigma, St Louis, Mo.). Cultures were re-stimulated with iDC every 7 days, pulsed with varying amounts of peptide (second round 25 mg/ml, third round 10 mg/ml) and irradiated (5000 rad) on day 8. At each re-stimulation, the T cells were transferred to new plates by first aspirating 70% of spent media in wells and then transferring the pooled contents to a new plate. Fresh IL-7 was added at each re-stimulation. The responder:stimulator (T cell:DC) ratio was set at 20 for each stimulation. Recombinant human IL-2 (10 U/ml) was added on day 5 after each re-stimulation. […]
(§8) The peptide specific CTLs were assessed for recognition and/or lysis of peptide-loaded T2 cells as well as various lung normal and tumor target cells. […] Recognition of specific antigens by peptide-specific CTL was measured by production of IFN-gamma and granzyme in the ELISPOT assay (Ramakrishna, V., M. M. Ross, M. Petersson, C. C. Gatlin, C. E. Lyons, C. L. Miller, H. E. Myers, M. McDaniel, L. R. Karns, R. Kiessling, G. Parmiani, and D.C. Flyer. (2003) Int Immunol 15:751-763; Morse, M. A., S. K. Nair, P. J. Mosca, A. C. Hobeika, T. M. Clay, Y. Deng, D. Boczkowski, A. Proia, D. Neidzwiecki, P. A. Clavien, H. I. Hurwitz, J. Schlom, E. Gilboa, and H. K. Lyerly. (2003) Cancer Invest 21:341-349). […]
PBMC from a HLA-A2^+ lung cancer patient were in vitro stimulated with synthetic peptides corresponding to each of the three selected lung cancer epitopes (SEQ ID 82, SEQ ID 34 and SEQ ID 67). […] Granzyme B producing cells were quantitated using an Immunospot reader. […]

[3] = tested on: T2 cells loaded with the corresponding synthetic peptide and HLA-A2+ lung cancer cells lines [CRL-5865, CRL-5944 and NCI-H522]; experiment: Interferon-γ ELISpot with peptide-specific CTL from a HLA-A2+ lung cancer patient; details: CTL from PBMC of a HLA-A2+ donor with lung cancer; FIG. 3A
Procedure: as §7, with “stimulation.” for “stimulation. Recombinant human IL-2 (10 U/ml) was added on day 5 after each re-stimulation.”
as §8
PBMC from a HLA-A2^+ donor with lung cancer were in vitro stimulated with synthetic peptides corresponding to each of the three selected lung cancer epitopes (SEQ ID 82, SEQ ID 34 and SEQ ID 67). […] Interferon-γ producing cells were quantitated using an Immunospot reader. […]

[4] = tested on: T2 cells loaded with the corresponding synthetic peptide and HLA-A2+ lung cancer cells lines [CRL-5865, CRL-5944 and NCI-H522]; experiment: Granzyme B ELISpot with peptide-specific CTL from healthy HLA-A2+ donors; details: CTL from PBMC of two healthy HLA-A2+ donors; FIG. 2
Procedure: as §1, §2, §3, §4, §5, §6

Sequence	recognition of targets by peptide-specific CTL (Interferon-γ producing cells) [1]	cytolytic activity of peptide-specific CTL (Granzyme B producing cells) [2]	recognition of targets by peptide-specific CTL (Interferon-γ producing cells) [3]	cytolytic activity of peptide-specific CTL (Granzyme B producing cells) [4]
VLVPVLVMV (listed as Homo sapiens) [SEQ ID 82]	recognize peptide loaded targets as well as lung cancer cells	are cytolytic	recognize peptide loaded targets as well as lung cancer cells	are cytolytic
KLSLVAAML (listed as Homo sapiens) [SEQ ID 36]	recognize peptide loaded targets as well as lung cancer cells			are cytolytic
DQFQKVLSL (listed as Homo sapiens) [SEQ ID 08]	recognize peptide loaded targets as well as lung cancer cells			are cytolytic
RLLEVPVML (listed as Homo sapiens) [SEQ ID 67]	recognize peptide loaded targets as well as lung cancer cells	are cytolytic	recognize peptide loaded targets as well as lung cancer cells	are cytolytic
KLGEFAKVLEL (listed as Homo sapiens) [SEQ ID 33]	recognize peptide loaded targets as well as lung cancer cells			are cytolytic
KIYQWINEL (listed as Homo sapiens) [SEQ ID 29]	recognize peptide loaded targets as well as lung cancer cells			are cytolytic
KLIPFLEKL (listed as Homo sapiens) [SEQ ID 34]	recognize peptide loaded targets as well as lung cancer cells	are cytolytic	recognize peptide loaded targets as well as lung cancer cells	are cytolytic
GMYGKIAVMEL (listed as Homo sapiens) [SEQ ID 19]	recognize peptide loaded targets as well as lung cancer cells			are cytolytic

Reference: patent publication US9907842B2, “Cytotoxic T lymphocyte inducing immunogens for prevention treatment and diagnosis of cancer” (Immunotope, Inc., priority 2009, dated 2018)
